Results published in patent publication US20100160351A1, “PHARMACEUTICAL COMPOSITIONS AND METHODS FOR TREATING HYPERURICEMIA AND RELATED DISORDERS” (NUON THERAPEUTICS, INC., priority 2008, published 2010).

How the values were obtained:
[1] = system: monosodium urate (MSU) crystal-induced air pouch inflammation; assay: Air Pouch Model 3: MSU crystal air pouch, rodent model of gout; assay type: in vivo, male Sprague-Dawley rats; conditions: 30 min before MSU; for Average Exudate Volume, Mean / Average Plasma Extravasation, OD620 nm, Mean / Total WBC in Sample, Mean / WBC in exudate, Mean: 4 h after MSU
Procedure: (§1) The objective of this study was to evaluate the anti-inflammatory potency of Tranilast. This evaluation was carried out in male Sprague-Dawley rats in a rodent model of gout. The animals were injected subcutaneously with 20 ml of sterile air, followed three days later by a supplemental injection with 20 ml of sterile air. Six days after the initial sterile air injection, the rats were injected intravenously with Evan's Blue and pretreated for thirty minutes with oral administration of 25 mg/kg, 50 mg/kg, 100 mg/kg, 200 mg/kg, or 300 mg/kg tranilast. After the pretreatment period, the rats were injected with 150 mg of monosodium urate (MSU) crystals (10 mg/ml) into the air pouch. Four hours later, the air pouch was injected with 5 ml heparinized saline and the entire contents of the air pouch removed, recording the total volume. The air pouch contents were evaluated for plasma extravasation and total white blood cell (WBC) count.
(§2) On day 0 the rats were anesthetized in a biological cabinet, the nape of the neck was cleansed with 70% isopropanol followed by iodine tincture (VEDCO). Twenty ml sterile (0.22 μm, Millipore, Cat. SLGSV255F) air was injected subcutaneously using a 23 G×2 inch needle fixed to a 20 ml syringe. The rats were returned to routine housing. No adverse reactions were observed.
(§3) On day 3 the rats were anesthetized in a biological cabinet, the nape of the neck was cleansed with 70% isopropanol followed by iodine tincture (VEDCO). Twenty ml sterile (0.22 μm, Fisher Scientific, Cat. 09-720-3) air was injected subcutaneously using a 23 G×2 inch needle fixed to a 20 ml syringe. The rats were returned to routine housing. No adverse reactions were observed.
On day 6 the rats were weighed (Mettler, Model PE3000, SN: F69474) and injected intravenously injected with 2 ml/kg Evans Blue. The animals were dosed orally with 0.5 ml/kg, 1 ml/kg, 2 ml/kg, 4 ml/kg tranilast, or 6 ml/kg tranilast or 6 ml/kg vehicle.
(§4) Thirty minutes after test material administration, the rats were anesthetized and six groups (2-7) were injected into the air pouch with 15 ml MSU using a 19 G×2 inch needle fitted to a 20 ml syringe. Group 1 was injected with 15 ml saline. The rats were returned to their cages, no adverse affects were observed.
(§5) Four hours after MSU/saline injection, the rats were anesthetized and 5 ml 10 U/ml heparinized saline was injected into the air pouch. The air pouch was gently massaged, the contents immediately removed using a 14 G×1 inch needle fitted to a 6 ml syringe, and the exudate volume recorded. An aliquot of the exudate was transferred to heparin-treated microtainer tubes (Becton Dickinson, Cat. 365958) for white blood cell (WBC) counting. The remainder of the exudate was centrifuged (Hermle Labrotechnik, Model Z200A, SN: 44060036), the supernatants removed and evaluated at OD620nm (Spectronic Unicam, Model 4000 1/4, SN: 3SGD003006) for plasma extravasation.

[2] = system: monosodium urate (MSU) crystal-induced air pouch inflammation; assay: Air Pouch Model 4: MSU crystal air pouch, rodent model of gout; assay type: in vivo, male Sprague-Dawley rats; conditions: 30 min before MSU; for Average Exudate Volume, Mean / Average Plasma Extravasation, OD620 nm, Mean / Total WBC in Sample, Mean / WBC in exudate, Mean: 4 h after MSU
Procedure: as §1, with “of 3” for “of 25”, “mg/kg, 10 mg/kg, 30” for “mg/kg, 50”, “100” for “100 mg/kg, 200”
as §2, §3
On day 6 the rats were weighed (Mettler, Model PE3000, SN: F69474) and injected intravenously injected with 2 ml/kg Evans Blue. The animals were dosed orally with 0.06 ml/kg, 0.2 ml/kg, 0.6 ml/kg, 2 ml/kg, or 6 ml/kg tranilast or 6 ml/kg vehicle.
as §4, §5

Compound: COc1ccc(/C=C/C(=O)Nc2ccccc2C(=O)O)cc1OC [Tranilast, 2-[[3-(3,4-dimethoxyphenyl)-1-oxo-2-propenyl]amino]benzoic acid]
- Average Exudate Volume, Mean ([1]; 25 mg/kg oral): 6.9 mL
- Average Plasma Extravasation, OD620 nm, Mean ([1]; 25 mg/kg oral): 1.181
- Total WBC in Sample, Mean ([1]; 25 mg/kg oral): 204170000
- WBC in exudate, Mean ([1]; 25 mg/kg oral): 31260000 cells/ml
- Average Exudate Volume, Mean ([1]; 50 mg/kg oral): 4.8 mL
- Average Plasma Extravasation, OD620 nm, Mean ([1]; 50 mg/kg oral): 1.071
- Total WBC in Sample, Mean ([1]; 50 mg/kg oral): 96948000
- WBC in exudate, Mean ([1]; 50 mg/kg oral): 18900000 cells/ml
- Average Exudate Volume, Mean ([1]; 100 mg/kg oral): 6.4 mL
- Average Plasma Extravasation, OD620 nm, Mean ([1]; 100 mg/kg oral): 1.276
- Total WBC in Sample, Mean ([1]; 100 mg/kg oral): 145408000
- WBC in exudate, Mean ([1]; 100 mg/kg oral): 27440000 cells/ml
- Average Exudate Volume, Mean ([1]; 200 mg/kg oral): 6.2 mL
- Average Plasma Extravasation, OD620 nm, Mean ([1]; 200 mg/kg oral): 1.033
- Total WBC in Sample, Mean ([1]; 200 mg/kg oral): 71692000
- WBC in exudate, Mean ([1]; 200 mg/kg oral): 12000000 cells/ml
- Average Exudate Volume, Mean ([1]; 300 mg/kg oral): 5.6 mL
- Average Plasma Extravasation, OD620 nm, Mean ([1]; 300 mg/kg oral): 0.611
- Total WBC in Sample, Mean ([1]; 300 mg/kg oral): 29232000
- WBC in exudate, Mean ([1]; 300 mg/kg oral): 5880000 cells/ml
- inhibition of plasma extravasation ([1]; highest dose 300 mg/kg oral): 65%
- inhibition of white blood cell infiltration ([1]; highest dose 300 mg/kg oral): 90%
- effect on MSU-induced parameters (plasma extravasation, leukocyte infiltration) ([1]; oral 25-300 mg/kg): dose-dependent inhibition
- Average Exudate Volume, Mean ([2]; 3 mg/kg oral): 9.6 mL
- Average Plasma Extravasation, OD620 nm, Mean ([2]; 3 mg/kg oral): 1.940
- Total WBC in Sample, Mean ([2]; 3 mg/kg oral): 368228000
- WBC in exudate, Mean ([2]; 3 mg/kg oral): 38510000 cells/ml
- Average Exudate Volume, Mean ([2]; 10 mg/kg oral): 7.7 mL
- Average Plasma Extravasation, OD620 nm, Mean ([2]; 10 mg/kg oral): 1.662
- Total WBC in Sample, Mean ([2]; 10 mg/kg oral): 471436000
- WBC in exudate, Mean ([2]; 10 mg/kg oral): 61200000 cells/ml
- Average Exudate Volume, Mean ([2]; 30 mg/kg oral): 7.1 mL
- Average Plasma Extravasation, OD620 nm, Mean ([2]; 30 mg/kg oral): 1.089
- Total WBC in Sample, Mean ([2]; 30 mg/kg oral): 286935000
- WBC in exudate, Mean ([2]; 30 mg/kg oral): 39650000 cells/ml
- Average Exudate Volume, Mean ([2]; 100 mg/kg oral): 5.1 mL
- Average Plasma Extravasation, OD620 nm, Mean ([2]; 100 mg/kg oral): 1.180
- Total WBC in Sample, Mean ([2]; 100 mg/kg oral): 159916000
- WBC in exudate, Mean ([2]; 100 mg/kg oral): 31740000 cells/ml
- Average Exudate Volume, Mean ([2]; 300 mg/kg oral): 3.9 mL
- Average Plasma Extravasation, OD620 nm, Mean ([2]; 300 mg/kg oral): 0.613
- Total WBC in Sample, Mean ([2]; 300 mg/kg oral): 77451111
- WBC in exudate, Mean ([2]; 300 mg/kg oral): 19466667 cells/ml
- inhibition of plasma extravasation ([2]; highest dose 300 mg/kg oral): 67%
- inhibition of white blood cell infiltration ([2]; highest dose 300 mg/kg oral): 80%
- effect on MSU-induced parameters (plasma extravasation, leukocyte infiltration) ([2]; oral 3-300 mg/kg): dose-dependent inhibition
